From patent US9528112B2, “Composition comprising material for inhibiting SCF or receptor thereof for treating or preventing diseases associated with vascular permeability” (AJOU UNIVERSITY INDUSTRY-ACADEMIC COOPERATION FOUNDATION, priority 2012, dated 2016)

Key:
mouse retinal vessels = experiment: Angiography of mouse retinal vessels (FITC-dextran, flat mount); format: in vivo; settings: SCF injected in the retina; 24 hours; FIG. 4A, 4B
Protocol: SCF and SCF receptor inhibiting antibody were injected in the retina of C57/BL6 mouse. 24 hours later, the mouse was anesthetized and then intracardiac FITC-dextran injection was performed in order to let the fluorescein flow through blood. 30 minutes later, the retina of the mouse was extracted and observed under a fluorescence microscope after flat mounting.

[1] = tested on: vascular endothelial cells; experiment: C-Kit dependent permeability of vascular endothelial cells with SCF (siRNA, transwell, FITC-dextran); format: cell-based; settings: SCF 20 ng/ml; FITC-conjugated dextran; FIG. 1B
Protocol: Vascular endothelial cells were loaded in 60 mm plate. The control siRNA 5′-[…]-3′ (SEQ. ID. NO: 1) and the C-Kit siRNAs 5′-UCAUUCUUGAUGUCUCUGG-3′ (SEQ. ID. NO: 2); 5′-UUUGAGUUCAGACAUGAGG-3′ (SEQ. ID. NO: 3); 5′-UCUUAUAAAGUGCAGCUUC-3′ (SEQ. ID. NO: 4); and 5′-UACAAUGCCAUUCUGAAGC-3′ (SEQ. ID. NO: 5) were introduced in the cells by using lipofectamin. 24 hours later, the endothelial cells were transferred into the upper chamber of 12 well transwell filter (Corning Costar), followed by culture for 24 hours. The medium was replaced with the endothelical basal medium supplemented with 1% FBS, followed by further culture for 3 hours. SCF was treated thereto at the concentration of 20 ng/ml, followed by the treatment with FITC-conjugated dextran (1 mg/ml). 30 minutes later, the culture fluid was taken from the lower chamber, followed by the measurement with a fluorophotometer.

[2] = tested on: NO (nitric oxide) in vascular endothelial cells; experiment: Generation of NO in vascular endothelial cells induced by SCF; format: cell-based; settings: SCF 20 ng/ml; culture supernatant collected over time; FIG. 2A
Protocol: Vascular endothelial cells were cultured in 12 well plate for 24 hours. The medium was replaced with the endothelial basal medium supplemented with 1% FBS, which was then treated with SCF (20 ng/ml). The culture fluid was collected over the time, followed by centrifugation. The level of NO (nitric oxide) in the supernatant was measured (Total No/Nitrite/Nitrate Assay Kit).

VE-cadherin = VE-cadherin endocytosis of vascular endothelial cells (immunostaining); format: cell-based; settings: SCF 20 ng/ml or VEGF 50 ng/ml, 37° C., 30 minutes; for expression of VE-cadherin on the cell surface: FIG. 2C; for endocytosis of VE-cadherin: acid buffer wash, FIG. 2D
Protocol: Vascular endothelial cells were cultured in 8 well chamber slide (Lab-Tek) for 48 hours. The medium was replaced with the endothelical basal medium supplemented with 1% FBS, followed by culture for 16 hours. The cells were treated with VE-cadherin antibody (R&D Systems, Minneapolis, Minn., USA) at 4° C. for 1 hour. SCF (20 ng/ml) and VEGF (50 ng/ml) (R&D Systems, Minneapolis, Minn., USA) were added thereto at 37° C. for 30 minutes to introduce VE-cadherin into the cells. To observe VE-cadherin on the cell surface, fixation was performed with 4% PFA, followed by immunostaining. To observe VE-cadherin in the inside of the cells migrated by SCF and VEGF mediated endocytosis, VE-cadherin on the cell surface was first removed by using an acid buffer (pH 2.7) and then the cells were fixed with 4% PFA, followed by immunostaining. Then, observation under a fluorescence microscope was performed.

C-Kit and Akt-eNOS = experiment: Intracellular signaling pathway of vascular endothelial cells with SCF (Western blotting); format: cell-based; settings: SCF 20 ng/ml, cells harvested over time, FIG. 1C
Protocol: Vascular endothelial cells were loaded in 60 mm plate, followed by culture for 24 hours. The medium was replaced with the endothelical basal medium supplemented with 1% FBS, followed by further culture for 6 hours. SCF (20 ng/ml) was treated thereto and the cells were harvested over the time, followed by Western blotting.

[3] = tested on: vascular endothelial cells; experiment: eNOS dependent increase of vascular endothelial cell permeability by SCF (L-NAME, transwell); format: cell-based; settings: SCF 20 ng/ml for 1 hour; FIG. 2B
Protocol: Vascular endothelial cells were loaded in the upper chamber of 12 well transwell filter (Corning Costar), followed by culture for 48 hours. The medium was replaced with the endothelical basal medium supplemented with 1% FBS, followed by further culture for 3 hours. L-NAME, the eNOS inhibitor, was pretreated (1 mM) to the cells for 30 minutes and then SCF (R&D Systems, Minneapolis, Minn., USA) was treated (20 ng/ml) thereto for 1 hour. FITC-conjugated dextran (fluorescein isothiocyanate-dextran) was also treated (1 mg/ml) thereto. 30 minutes later, the culture fluid was taken from the lower chamber, followed by the measurement with a fluorophotometer.

C57/BL mouse = experiment: Vascular permeability in mouse subcutaneous tissue (Evans blue dye, back skin, OD620); format: in vivo; settings: SCF injected intradermally; skin collected after 20 minutes; FIG. 3A, 3B
Protocol: Evans blue dye […] was injected intravenously in the tail of C57/BL mouse. 10 minutes later, SCF and SCF receptor inhibiting antibody (anti-cKit IgG: Monoclonal anti-SCF receptor neutralization antibody: R&D Systems, Minneapolis, Minn., USA) were injected intradermally on the back of the mouse. 20 minutes later, the back skin of the mouse was collected. The region where Evans blue dye was penetrated through tissues was photographed. The skin was fixed in formamide, which stood at room temperature for 4 days. Then, OD620 was measured by using a spectrophotometer.

[4] = tested on: vascular endothelial cells; experiment: Vascular endothelial cell permeability with SCF (transwell, FITC-dextran); format: cell-based; settings: SCF 10, 20 and 50 ng/ml for 1 hour; FITC-conjugated dextran 1 mg/ml, 30 minutes; FIG. 1A
Protocol: Vascular endothelial cells were loaded in the upper chamber of 12 well transwell filter (Corning Costar), followed by culture for 48 hours. The medium was replaced with the endothelical basal medium supplemented with 1% FBS, followed by further culture for 3 hours. SCF (R&D Systems, Minneapolis, Minn., USA) was treated thereto at different concentrations (10, 20, and 50 ng/ml) for 1 hour, followed by the treatment with FITC-conjugated dextran (fluorescein isothiocyanate-dextran) (1 mg/ml). 30 minutes later, the culture fluid was taken from the lower chamber, followed by the measurement with a fluorophotometer.

Substance | retinal vessel permeability (mouse retinal vessels) | permeability of the endothelial cells [1] | level of NO [2] | expression of VE-cadherin on the cell surface (VE-cadherin) | endocytosis of VE-cadherin (VE-cadherin) | phosphorylation of C-Kit and Akt-eNOS (C-Kit and Akt-eNOS) | permeability of endothelial cells [3] | vascular permeability of the mouse (Evans blue leakage in back skin) (C57/BL mouse) | permeability of vascular endothelial cells [4]
SCF: cytokine binding to C-Kit (CD117); R&D Systems | increased | increased | increased | reduced | induced | induced the phosphorylation | increased | increased | increased by the treatment of SCF dose-dependently
VEGF | – | – | – | decreased | increased | – | – | – | –
